# Measurements from PubChem BioAssay AID2060882 (Molecular Pharmacology Branch, DTP, NCI, 2025).
# Tested on: 898857-211-R-J1-PDC complex spheroids, growth % test/control
# Experiment: Anticancer human tumor 898857-211-R-J1-PDC patient-derived melanoma cell line growth inhibition [RAS]
# Settings: for IC50: curve of first compound; for viability, T/C: stronger effect = lower value
# Method in brief: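 Agents were tested in combination matrices in half-log decrements from a top concentration at or near clinical Cmax (10 microM if undetermined). Targets were multi-cell spheroids of tumour lines plus HUVEC and MSC stromal cells.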
# [1] = second compound 0.00316 µM, first compound 0.000949 µM
# [2] = second compound 0.00316 µM, first compound 0.003 µM
# [3] = second compound 0.00316 µM, first compound 0.00949 µM
# [4] = second compound 0.00316 µM, first compound 0.03 µM
# [5] = second compound 0.00316 µM, first compound 0.0949 µM
# [6] = second compound 0.00316 µM, first compound 0.3 µM
# [7] = second compound 0.01 µM, first compound 0.000949 µM
# [8] = second compound 0.01 µM, first compound 0.003 µM
# [9] = second compound 0.01 µM, first compound 0.00949 µM
# [10] = second compound 0.01 µM, first compound 0.03 µM
# [11] = second compound 0.01 µM, first compound 0.0949 µM
# [12] = second compound 0.01 µM, first compound 0.3 µM
# [13] = second compound 0.0316 µM, first compound 0.000949 µM
# [14] = second compound 0.0316 µM, first compound 0.003 µM
# [15] = second compound 0.0316 µM, first compound 0.00949 µM
# [16] = second compound 0.0316 µM, first compound 0.03 µM
# [17] = second compound 0.0316 µM, first compound 0.0949 µM
# [18] = second compound 0.0316 µM, first compound 0.3 µM
# [19] = second compound 0.1 µM, first compound 0.000949 µM
# [20] = second compound 0.1 µM, first compound 0.003 µM
# [21] = second compound 0.1 µM, first compound 0.00949 µM
# [22] = second compound 0.1 µM, first compound 0.03 µM
# [23] = second compound 0.1 µM, first compound 0.0949 µM
# [24] = second compound 0.1 µM, first compound 0.3 µM
# [25] = second compound 0.316 µM, first compound 0.000949 µM
# [26] = second compound 0.316 µM, first compound 0.003 µM
# [27] = second compound 0.316 µM, first compound 0.00949 µM
# [28] = second compound 0.316 µM, first compound 0.03 µM
# [29] = second compound 0.316 µM, first compound 0.0949 µM
# [30] = second compound 0.316 µM, first compound 0.3 µM
# [31] = second compound 1 µM, first compound 0.000949 µM
# [32] = second compound 1 µM, first compound 0.003 µM
# [33] = second compound 1 µM, first compound 0.00949 µM
# [34] = second compound 1 µM, first compound 0.03 µM
# [35] = second compound 1 µM, first compound 0.0949 µM
# [36] = second compound 1 µM, first compound 0.3 µM
# 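Also: spheroids exposed to compound for seven days before readout.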
# 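For viability, T/C in this document: 100% = DMSO vehicle control wells.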
smiles,measurement,setting,value
CCc1c2c(nc3ccc(O)cc13)-c1cc3c(c(=O)n1C2)COC(=O)[C@]3(O)CC + C=CC(=O)N1CCN(c2nc(OCC3CCCN3C)nc3c(F)c(-c4nc(N)cc(C)c4C(F)(F)F)c(Cl)cc23)C(C)C1,IC50,second compound 0.00316 µM,4.67 nM
same,IC50,second compound 0.01 µM,4.95 nM
same,IC50,second compound 0.0316 µM,5.08 nM
same,IC50,second compound 0.1 µM,4.95 nM
same,IC50,second compound 0.316 µM,5.43 nM
same,IC50,second compound 1 µM,5.56 nM
same,"viability, T/C",[1],95.2%
same,"viability, T/C",[2],64.1%
same,"viability, T/C",[3],27.9%
same,"viability, T/C",[4],8.98%
same,"viability, T/C",[5],7.24%
same,"viability, T/C",[6],8.79%
same,"viability, T/C",[7],89.6%
same,"viability, T/C",[8],67.4%
same,"viability, T/C",[9],27.5%
same,"viability, T/C",[10],10.1%
same,"viability, T/C",[11],7.97%
same,"viability, T/C",[12],8.39%
same,"viability, T/C",[13],87.3%
same,"viability, T/C",[14],69.2%
same,"viability, T/C",[15],27.4%
same,"viability, T/C",[16],8.88%
same,"viability, T/C",[17],8.21%
same,"viability, T/C",[18],8.99%
same,"viability, T/C",[19],93%
same,"viability, T/C",[20],68.7%
same,"viability, T/C",[21],26%
same,"viability, T/C",[22],8.12%
same,"viability, T/C",[23],7.6%
same,"viability, T/C",[24],8.98%
same,"viability, T/C",[25],98.4%
same,"viability, T/C",[26],73.3%
same,"viability, T/C",[27],28.4%
same,"viability, T/C",[28],9.68%
same,"viability, T/C",[29],9.81%
same,"viability, T/C",[30],8.65%
same,"viability, T/C",[31],98%
same,"viability, T/C",[32],75.5%
same,"viability, T/C",[33],27.8%
same,"viability, T/C",[34],11.4%
same,"viability, T/C",[35],8.78%
same,"viability, T/C",[36],8.26%
CC1(C)CCC(Nc2ncc(C(F)(F)F)c(-c3c[nH]c4c(P(C)(C)=O)c(C#N)ccc34)n2)CN1 (centres undefined) + C=CC(=O)N1CCN(c2nc(OCC3CCCN3C)nc3c(F)c(-c4nc(N)cc(C)c4C(F)(F)F)c(Cl)cc23)C(C)C1,IC50,second compound 0.00316 µM,5.36 nM
same,IC50,second compound 0.01 µM,5.18 nM
same,IC50,second compound 0.0316 µM,4.69 nM
same,IC50,second compound 0.1 µM,5.81 nM
same,IC50,second compound 0.316 µM,5.77 nM
same,IC50,second compound 1 µM,4.52 nM
same,"viability, T/C",[1],96.9%
same,"viability, T/C",[2],67.8%
same,"viability, T/C",[3],32.1%
same,"viability, T/C",[4],20.6%
same,"viability, T/C",[5],16.4%
same,"viability, T/C",[6],14.5%
same,"viability, T/C",[7],96.9%
same,"viability, T/C",[8],66.3%
same,"viability, T/C",[9],32.1%
same,"viability, T/C",[10],19.5%
same,"viability, T/C",[11],18.5%
same,"viability, T/C",[12],17.8%
same,"viability, T/C",[13],91.3%
same,"viability, T/C",[14],61.3%
same,"viability, T/C",[15],32%
same,"viability, T/C",[16],22%
same,"viability, T/C",[17],17.4%
same,"viability, T/C",[18],17.1%
same,"viability, T/C",[19],91.8%
same,"viability, T/C",[20],74.7%
same,"viability, T/C",[21],32%
same,"viability, T/C",[22],14.9%
same,"viability, T/C",[23],17.6%
same,"viability, T/C",[24],15.8%
same,"viability, T/C",[25],101%
same,"viability, T/C",[26],70.5%
same,"viability, T/C",[27],33.8%
same,"viability, T/C",[28],21.8%
same,"viability, T/C",[29],17.8%
same,"viability, T/C",[30],15%
same,"viability, T/C",[31],98.9%
same,"viability, T/C",[32],61.3%
same,"viability, T/C",[33],29.3%
same,"viability, T/C",[34],18.3%
same,"viability, T/C",[35],15%
same,"viability, T/C",[36],12.2%
